The source of these data is BindingDB's records for doi:10.1021/jm00207a020 (1978).

SMILES strings stand for the structures.

This assay has as its target Adenylate cyclase type 1 (Rattus norvegicus, UniProt D4A3N4). The assay can be described thus: Inhibition of dopamine-sensitive rat brain adenylyl cyclase activity assessed as cAMP level.

Chain of Adenylate cyclase type 1 (D4A3N4 whole entry): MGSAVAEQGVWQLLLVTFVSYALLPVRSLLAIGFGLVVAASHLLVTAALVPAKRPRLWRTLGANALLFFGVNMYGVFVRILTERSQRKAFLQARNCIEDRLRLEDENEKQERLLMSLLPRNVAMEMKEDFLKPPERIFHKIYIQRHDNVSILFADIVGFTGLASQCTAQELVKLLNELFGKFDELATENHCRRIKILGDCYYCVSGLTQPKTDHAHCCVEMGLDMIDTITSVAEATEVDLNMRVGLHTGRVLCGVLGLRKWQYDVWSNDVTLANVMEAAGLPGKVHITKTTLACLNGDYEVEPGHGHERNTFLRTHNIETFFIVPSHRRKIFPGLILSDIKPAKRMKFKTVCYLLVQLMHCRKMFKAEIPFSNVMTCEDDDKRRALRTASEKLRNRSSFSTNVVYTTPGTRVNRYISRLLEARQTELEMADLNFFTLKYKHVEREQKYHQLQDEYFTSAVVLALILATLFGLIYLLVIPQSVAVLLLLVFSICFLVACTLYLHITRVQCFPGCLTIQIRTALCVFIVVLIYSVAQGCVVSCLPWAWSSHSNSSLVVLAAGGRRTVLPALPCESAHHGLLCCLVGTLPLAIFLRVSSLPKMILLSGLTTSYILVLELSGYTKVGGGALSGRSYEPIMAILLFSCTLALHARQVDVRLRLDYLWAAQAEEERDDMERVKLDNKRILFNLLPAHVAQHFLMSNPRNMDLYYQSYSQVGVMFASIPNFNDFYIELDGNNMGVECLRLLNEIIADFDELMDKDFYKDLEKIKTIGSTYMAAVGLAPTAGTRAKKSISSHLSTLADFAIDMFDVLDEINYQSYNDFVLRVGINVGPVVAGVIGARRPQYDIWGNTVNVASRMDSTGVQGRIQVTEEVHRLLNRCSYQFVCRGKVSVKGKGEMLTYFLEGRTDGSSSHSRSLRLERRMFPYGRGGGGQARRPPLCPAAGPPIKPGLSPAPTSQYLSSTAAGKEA

With `CN1CCN(C2=Nc3cc(Cl)ccc3Nc3ccccc32)CC1` [8-Chloro-11-(4-methyl-piperazin-1-yl)-5H-dibenzo[b,e][1,4]diazepine(Clopazine)], the IC50 (as a rule, the concentration at which inhibition is half-maximal) worked out at 1.4 nM.
To `c1ccc(C2=Nc3ccccc3N=C(N3CCC(c4ccccc4)CC3)C2)cc1` belongs 4.5 nM.
